Numbers after ± are expanded uncertainties.
Legend:
[1] = 99.9 kPa, Liquid, Vibrating tube method
[2] = refractive index (Na D-line) (dimensionless); details: 99.9 kPa, Liquid, Standard Abbe refractometry

SMILES | mass density ([1]; 293.15 K) [kg/m3] | mass density ([1]; 294.15 K) [kg/m3] | mass density ([1]; 295.15 K) [kg/m3] | mass density ([1]; 296.15 K) [kg/m3] | mass density ([1]; 297.15 K) [kg/m3] | mass density ([1]; 298.15 K) [kg/m3] | mass density ([1]; 299.62 K) [kg/m3] | refractive index ([2]; 293.15 K) | refractive index ([2]; 298.15 K) | mass density ([1]; 299.75 K) [kg/m3]
CCCCCCCCCC [decane] | 729.762 ± 0.33 | 728.496 ± 0.29 | 727.738 ± 0.26 | 726.983 ± 0.26 | 726.227 ± 0.26 | 725.467 ± 0.26 | 724.355 ± 0.26 | 1.41196 ± 0.0005 | 1.40964 ± 0.0005 | –
CCCCCCCCCCC [undecane] | 739.96 ± 0.29 | – | 737.96 ± 0.27 | – | 736.48 ± 0.25 | 735.73 ± 0.25 | – | 1.41726 ± 0.00049 | 1.41502 ± 0.00049 | 734.56 ± 0.25
CCCCCCCCC [nonane] | 717.883 ± 0.33 | 716.601 ± 0.29 | 715.824 ± 0.26 | 715.045 ± 0.26 | 714.268 ± 0.25 | 713.689 ± 0.24 | – | 1.40595 ± 0.00049 | 1.40329 ± 0.00049 | –
